Data: ChEMBL document CHEMBL3822373, “An evolved oxazolidinone with selective potency against Mycobacterium tuberculosis and gram positive bacteria” (2016)
≈ marks a conversion by molar mass, not a printed value. Calls of active or inactive are those of the source. No cut-off for these calls is given here.

Key:
Acinetobacter baumannii [1] = assay: Antibacterial activity against Acinetobacter baumannii 6M-1b measured after 18 hrs by broth microdilution assay; assay type: functional
Acinetobacter baumannii [2] = assay: Antibacterial activity against Acinetobacter baumannii ATCC 19606 measured after 18 hrs by broth microdilution assay; assay type: functional; settings: ATCC 19606, 18 h
Acinetobacter baumannii [3] = assay: Antibacterial activity against Acinetobacter baumannii ACBA measured after 18 hrs by broth microdilution assay; assay type: functional
Enterobacter cloacae = assay: Antibacterial activity against Enterobacter cloacae ATCC 13047 measured after 18 hrs by broth microdilution assay; assay type: functional; settings: ATCC 13047, 18 h
Klebsiella pneumoniae = assay: Antibacterial activity against Klebsiella pneumoniae ATCC 35657 measured after 18 hrs by broth microdilution assay; assay type: functional; settings: ATCC 35657, 18 h
Pseudomonas aeruginosa = assay: Antibacterial activity against Pseudomonas aeruginosa PA14 measured after 18 hrs by broth microdilution assay; assay type: functional; settings: PA14, 18 h
Staphylococcus aureus [4] = assay: Antibacterial activity against […] Staphylococcus aureus ATCC 29213 measured after 18 hrs by broth microdilution assay; assay type: functional; settings: ATCC 29213, 18 h
Enterococcus faecalis [5] = assay: Antibacterial activity against Enterococcus faecalis ATCC 19433 measured after 18 hrs by broth microdilution assay; assay type: functional; settings: ATCC 19433, 18 h
[6] = tested on: Mycobacterium tuberculosis; assay: Antibacterial activity against […] Mycobacterium tuberculosis H37Rv measured after 14 days by broth microdilution assay; assay type: functional; settings: 336 h
[7] = tested on: Mycobacterium tuberculosis; assay: Antibacterial activity against Mycobacterium tuberculosis 115R measured after 14 days by broth microdilution assay; assay type: functional; settings: 336 h
[8] = tested on: Mycobacterium tuberculosis; assay: Antibacterial activity against Mycobacterium tuberculosis 124R measured after 14 days by broth microdilution assay; assay type: functional; settings: 336 h
[9] = tested on: Mycobacteroides abscessus; assay: Antibacterial activity against Mycobacterium abscessus ATCC 19977 measured after 3 days by broth microdilution assay; assay type: functional; settings: ATCC 19977, 72 h
Mycobacterium avium = assay: Antibacterial activity against Mycobacterium avium 104 measured after 7 days by broth microdilution assay; assay type: functional; settings: Mycobacterium avium, 104, 168 h
[10] = tested on: Mycobacterium tuberculosis; assay: Bactericidal activity against Mycobacterium tuberculosis H37Rv measured after 21 days by broth microdilution assay; assay type: functional; settings: 504 h, read-out: MBC99.9
Enterococcus faecalis [11] = assay: Bactericidal activity against Enterococcus faecalis ATCC 19433 up to 8 times MIC90 measured after 2 days by broth microdilution assay; assay type: functional
Staphylococcus aureus [12] = assay: Bactericidal activity against Staphylococcus aureus ATCC 29213 up to 8 times MIC90 measured after 2 days by broth microdilution assay; assay type: functional, organism-based
Enterococcus faecalis [13] = assay: Bacteriostatic activity against Enterococcus faecalis ATCC 19433 assessed as prevention of spontaneous resistant mutant selection up to 60 times MIC90 measured after 5 weeks; assay type: functional
Staphylococcus aureus [14] = assay: Bacteriostatic activity against […] Staphylococcus aureus ATCC 29213 assessed as prevention of spontaneous resistant mutant selection up to 60 times MIC90 measured after 5 weeks; assay type: functional, organism-based
Enterococcus faecalis [15] = assay: Potentiation of biapenem-induced antibacterial activity against Enterococcus faecalis ATCC 19433 at <0.5 times MIC90 by checkboard titration assay; assay type: functional
Enterococcus faecalis [16] = assay: Potentiation of faropenem-induced antibacterial activity against Enterococcus faecalis ATCC 19433 at <0.5 times MIC90 by checkboard titration assay; assay type: functional
Enterococcus faecalis [17] = assay: Potentiation of tabipenem-induced antibacterial activity against Enterococcus faecalis ATCC 19433 at <0.5 times MIC90 by checkboard titration assay; assay type: functional
Staphylococcus aureus [18] = assay: Potentiation of biapenem-induced antibacterial activity against Staphylococcus aureus ATCC 29213 at <0.5 times MIC90 by checkboard titration assay; assay type: functional, organism-based
Staphylococcus aureus [19] = assay: Potentiation of faropenem-induced antibacterial activity against Staphylococcus aureus ATCC 29213 at <0.5 times MIC90 by checkboard titration assay; assay type: functional, organism-based
Staphylococcus aureus [20] = assay: Potentiation of tabipenem-induced antibacterial activity against Staphylococcus aureus ATCC 29213 at <0.5 times MIC90 by checkboard titration assay; assay type: functional, organism-based
[21] = tested on: Mycobacterium tuberculosis; assay: Potentiation of isoniazid-induced antibacterial activity against Mycobacterium tuberculosis H37Rv by checkboard titration assay; assay type: functional, organism-based
[22] = tested on: Mycobacterium tuberculosis; assay: Potentiation of rifampicin-induced antibacterial activity against Mycobacterium tuberculosis H37Rv by checkboard titration assay; assay type: functional, organism-based
[23] = tested on: Mycobacterium tuberculosis; assay: Antibacterial activity against Mycobacterium tuberculosis; assay type: functional

CC(=O)NC[C@H]1CN(c2ccc3c(c2)Oc2ccccc2O3)C(=O)O1
MIC90 (Acinetobacter baumannii [1]): 0.25 µg/mL (≈ 0.735 µM)
MIC90 (Acinetobacter baumannii [2]): 32 µg/mL (≈ 94 µM)
MIC90 (Acinetobacter baumannii [3]): > 64 µg/mL
MIC90 (Enterobacter cloacae): > 64 µg/mL
MIC90 (Klebsiella pneumoniae): > 64 µg/mL
MIC90 (Pseudomonas aeruginosa): > 64 µg/mL
MIC90 (Staphylococcus aureus [4]): 0.5 µg/mL (≈ 1.47 µM)
MIC90 (Enterococcus faecalis [5]): 0.25 µg/mL (≈ 0.735 µM)
MIC90 [6]: 0.5 µg/mL (≈ 1.47 µM)
MIC90 [7]: 0.5 µg/mL (≈ 1.47 µM)
MIC90 [8]: 0.5 µg/mL (≈ 1.47 µM)
MIC90 [9]: > 64 µg/mL
MIC90 (Mycobacterium avium): > 64 µg/mL
MBC [10]: 2 µg/mL (≈ 5.88 µM)
Activity (Enterococcus faecalis [11]): inactive
Activity (Staphylococcus aureus [12]): inactive
Activity (Enterococcus faecalis [13]): Active
Activity (Staphylococcus aureus [14]): Active
Activity (Enterococcus faecalis [15]): inactive
Activity (Enterococcus faecalis [16]): inactive
Activity (Enterococcus faecalis [17]): inactive
Activity (Staphylococcus aureus [18]): inactive
Activity (Staphylococcus aureus [19]): inactive
Activity (Staphylococcus aureus [20]): inactive
Activity [21]: inactive
Activity [22]: inactive

C[C@@H](O)[C@H]1C(=O)N2C(C(=O)[O-])=C(SC3Cn4cnc[n+]4C3)[C@H](C)[C@H]12 (stereo partly specified) [BIAPENEM]
MIC90 (Staphylococcus aureus [4]): 0.007 µg/mL (≈ 0.02 µM)
MIC90 (Enterococcus faecalis [5]): 0.25 µg/mL (≈ 0.713 µM)
MIC90 [23]: 2.5 µg/mL (≈ 7.13 µM)

C[C@@H](O)[C@H]1C(=O)N2C(C(=O)O)=C([C@H]3CCCO3)S[C@H]12 [FAROPENEM]
MIC90 (Staphylococcus aureus [4]): 0.015 µg/mL (≈ 0.0526 µM)
MIC90 (Enterococcus faecalis [5]): 0.25 µg/mL (≈ 0.876 µM)
MIC90 [23]: 2.5 µg/mL (≈ 8.76 µM)

CC(=O)NC[C@H]1CN(c2ccc(N3CCOCC3)c(F)c2)C(=O)O1 [LINEZOLID]
MIC90 (Acinetobacter baumannii [1]): 0.25 µg/mL (≈ 0.741 µM)
MIC90 (Acinetobacter baumannii [2]): > 64 µg/mL
MIC90 (Acinetobacter baumannii [3]): > 64 µg/mL
MIC90 (Enterobacter cloacae): > 64 µg/mL
MIC90 (Klebsiella pneumoniae): 16 µg/mL (≈ 47.4 µM)
MIC90 (Pseudomonas aeruginosa): > 64 µg/mL
MIC90 (Staphylococcus aureus [4]): 1 µg/mL (≈ 2.96 µM)
MIC90 (Enterococcus faecalis [5]): 1 µg/mL (≈ 2.96 µM)
MIC90 [6]: 0.2 µg/mL (≈ 0.593 µM)
MIC90 [7]: 0.25 µg/mL (≈ 0.741 µM)
MIC90 [8]: 0.25 µg/mL (≈ 0.741 µM)

C[C@@H](O)[C@H]1C(=O)N2C(C(=O)O)=C(S[C@@H]3CN[C@H](C(=O)N(C)C)C3)[C@H](C)[C@H]12 [MEROPENEM]
MIC90 (Acinetobacter baumannii [1]): 1 µg/mL (≈ 2.61 µM)
MIC90 (Acinetobacter baumannii [2]): > 64 µg/mL
MIC90 (Acinetobacter baumannii [3]): > 64 µg/mL
MIC90 (Enterobacter cloacae): 0.13 µg/mL (≈ 0.339 µM)
MIC90 (Klebsiella pneumoniae): < 0.06 µg/mL
MIC90 (Pseudomonas aeruginosa): 0.25 µg/mL (≈ 0.652 µM)
MIC90 (Staphylococcus aureus [4]): 0.06 µg/mL (≈ 0.156 µM)
MIC90 (Enterococcus faecalis [5]): 4 µg/mL (≈ 10.4 µM)
MIC90 [6]: 4 µg/mL (≈ 10.4 µM)
MIC90 [7]: 8 µg/mL (≈ 20.9 µM)
MIC90 [8]: 8 µg/mL (≈ 20.9 µM)
MIC90 [9]: > 64 µg/mL
MIC90 (Mycobacterium avium): > 64 µg/mL

CO[C@H]1/C=C/O[C@@]2(C)Oc3c(C)c(O)c4c(O)c(c(/C=N/N5CCN(C)CC5)c(O)c4c3C2=O)NC(=O)/C(C)=C\C=C\[C@H](C)[C@H](O)[C@@H](C)[C@@H](O)[C@@H](C)[C@H](OC(C)=O)[C@@H]1C [RIFAMPIN]
MIC90 [7]: 4 µg/mL (≈ 4.86 µM)
MIC90 [8]: 128 µg/mL (≈ 156 µM)

C[C@@H](O)[C@H]1C(=O)N2C(C(=O)O)=C(SC3CN(C4=NCCS4)C3)[C@H](C)[C@H]12 [TEBIPENEM]
MIC90 (Staphylococcus aureus [4]): 0.03 µg/mL (≈ 0.0782 µM)
MIC90 (Enterococcus faecalis [5]): 0.25 µg/mL (≈ 0.652 µM)
MIC90 [23]: 1.25 µg/mL (≈ 3.26 µM)
